Experimental data published in ChEMBL document CHEMBL5154892, “Structure-Based Optimization and Characterization of Macrocyclic Zika Virus NS2B-NS3 Protease Inhibitors” (J Med Chem, 2022).
Active and inactive are the calls of the source. The rule behind the calls is not given here. *1 amine or outer side, *2 acyl side, *3 side chain or, on linkers, in order; H or OH if unused. Where a SMILES comes first, the peptide text is derived from it. [ ]: non-standard residue; d: D form. X2 = N=C(N)N[C@H](CCOCN[*:1])C(=O)[*:2]; X3 = O=C([C@@H](CN[*:1])Cc1ccccc1)[*:2]; X1 = O=C([C@H](CN[*:1])Cc1ccccc1)[*:2]; NMeβAla = CN(CCC(=O)[*:2])[*:1]; βAla = NCCC(=O)O; Sar = CNCC(=O)O

Tests used:
[1] = Binding affinity to Zika virus NS2B-NS3 protease using Phac-Leu-Lys-Lys-Arg-AMC as substrate measured immediately upto 10 mins by fluorogenic assay
[2] = Binding affinity to West Nile virus NSB2 (52 to 96 amino acids)-NS3 (1 to 184 amino acids) protease using Phac-Leu-Lys-Lys-Arg-AMC as substrate measured immediately upto 10 mins by fluorogenic assay
Prothrombin (Bos taurus) = Prothrombin (Bos taurus) (UniProt P00735); test: Inhibition of bovine thrombin at 100 uM using Tos-Gly-Pro-Arg-AMC as substrate by fluorescence plate reader analysis
Trypsin (Sus scrofa) = Trypsin (Sus scrofa) (UniProt P00761); test: Inhibition of porcine trypsin at 100 uM using Mes-D-Arg-Gly-Arg-AMC a substrate by fluorescence plate reader analysis
Zika virus [3] = test: Antiviral activity against ZIKV H/PF/2013 infected in human A549 cells assessed as reduction in number of infected cells at 80 uM measured after 24 hrs post infection by immunofluorescence microscopic analysis relative to control; assay type: functional, organism-based
Zika virus [4] = test: Antiviral activity against ZIKV H/PF/2013 infected in human A549 cells assessed as reduction in extracellular virus titer in cell supernatant at 80 uM measured after 48 hrs post infection by plaque assay based crystal violet staining analysis; assay type: functional, organism-based
Zika virus [5] = test: Antiviral activity against ZIKV H/PF/2013 infected in human A549 cells assessed as reduction in extracellular virus titer in cell supernatant at 80 uM measured after 24 hrs post infection by plaque assay based crystal violet staining analysis; assay type: functional, organism-based
Zika virus [6] = test: Antiviral activity against Zika virus infected in human A549 cells assessed as reduction in luciferase activity at 20 uM measured up to 48 hrs post infection by luciferase assay; assay type: functional, organism-based
Zika virus [7] = test: Antiviral activity against ZIKV H/PF/2013 infected in human A549 cells assessed as reduction in intracellular virus titer at 80 uM measured after 48 hrs post infection by plaque assay based crystal violet staining analysis; assay type: functional, organism-based
A549 [8] = test: Cytotoxicity against human A549 cells assessed as cell viability upto 80 uM and measured after 24 to 48 hrs by PrestoBlue dye based microplate reader analysis; assay type: toxicity; conditions: a549, 80 µM, time 24-48 hrs
A549 [9] = test: Cytotoxicity against human A549 cells assessed as cell viability at 2.5 to 160 uM measured after 24 to 48 hrs by PrestoBlue dye based microplate reader analysis; assay type: toxicity; conditions: a549, 160 µM, dose lower 2.5 µM, time lower 24 hrs, dose upper 160 µM, time upper 48 hrs

Trypsin (Sus scrofa), sequence (P00761 whole entry): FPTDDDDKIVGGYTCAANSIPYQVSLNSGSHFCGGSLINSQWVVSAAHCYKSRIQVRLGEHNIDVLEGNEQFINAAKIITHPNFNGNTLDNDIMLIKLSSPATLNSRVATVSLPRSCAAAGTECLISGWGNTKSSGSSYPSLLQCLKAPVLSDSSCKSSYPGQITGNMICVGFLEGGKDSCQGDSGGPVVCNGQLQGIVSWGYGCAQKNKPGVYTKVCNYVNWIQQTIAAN

Compound	Ki [1] [nM]	Ki [2] [nM]	also measured
CC(C)[C@H]1NC(=O)[C@H](NC(=N)N)CCOCNC(=O)[C@H](CCCCN)NC(=O)[C@H](CCCCN)NC(=O)Cc2cccc(c2)CNC1=O	7.74	439	
N=C(N)N[C@@H]1CCOCNC(=O)[C@H](CCCCN)NC(=O)[C@H](CCCCN)NC(=O)[C@@H](CC2CCCCC2)NC(=O)CCNC(=O)CNC1=O	6.94	735	inhibition (Prothrombin (Bos taurus)): < 30%; inhibition (Trypsin (Sus scrofa)): < 10%
CC(C)C[C@H]1NC(=O)[C@H](NC(=N)N)CCOCNC(=O)[C@H](CCCCN)NC(=O)[C@H](CCCCN)NC(=O)Cc2cccc(c2)CNC1=O	9.53	276	inhibition (Prothrombin (Bos taurus)): < 30%; inhibition (Trypsin (Sus scrofa)): < 10%
CC(C)C[C@@H]1NC(=O)CCNC(=O)CNC(=O)[C@H](NC(=N)N)CCOCNC(=O)[C@H](CCCCN)NC(=O)[C@H](CCCCN)NC1=O	124	10300	
N=C(N)N[C@@H]1CCOCNC(=O)[C@H](CCCCN)NC(=O)[C@H](CCCCN)NC(=O)Cc2cccc(c2)CNC(=O)[C@@H](CCC2CCCCC2)NC1=O.O=C(O)C(F)(F)F	2.33	219	inhibition (Prothrombin (Bos taurus)): < 30%; Activity (Zika virus [3]): Active; Activity (Zika virus [4]): Active; Activity (Zika virus [5]): Active; Activity (Zika virus [6]): Active; Activity (Zika virus [7]): Active; inhibition (Trypsin (Sus scrofa)): < 10%; Activity (A549 [8]): Non-Toxic
CN1CC(=O)NCCC(=O)N[C@@H](CCCCN)C(=O)N[C@@H](CCCCN)C(=O)NCOCC[C@@H](NC(=N)N)C(=O)NCC1=O (cyclo(G[Sar][βAla]KK[X2]))	333	30700	
CN1CC(=O)NCC(=O)NCCC(=O)N[C@@H](CCCCN)C(=O)N[C@@H](CCCCN)C(=O)NCOCC[C@@H](NC(=N)N)C1=O (cyclo(G[βAla]KK[X2][Sar]))	332	30500	
N=C(N)N[C@@H]1CCOCNC(=O)[C@H](CCCCN)NC(=O)[C@H](CCCCN)NC(=O)Cc2cccc(c2)CNC(=O)[C@@H](CCc2ccccc2)NC1=O	6.02	331	
N=C(N)N[C@@H]1CCOCNC(=O)[C@H](CCCCN)NC(=O)[C@H](CCCCN)NC(=O)CCNC(=O)CNC(=O)CNC1=O (cyclo(GG[βAla]KK[X2]))			inhibition (Prothrombin (Bos taurus)): < 30%; Activity (Zika virus [6]): Active; inhibition (Trypsin (Sus scrofa)): < 10%; Activity (A549 [8]): Non-Toxic
CN1CCC(=O)N[C@@H](CCCCN)C(=O)N[C@@H](CCCCN)C(=O)NCOCC[C@@H](NC(=N)N)C(=O)NCC(=O)NCC1=O (cyclo(GG[NMeβAla]KK[X2]))	490	36900	
C[C@@H]1NC(=O)CNC(=O)CNC(=O)[C@H](NC(=N)N)CCOCNC(=O)[C@H](CCCCN)NC(=O)[C@H](CCCCN)NC1=O	92.2	1170	
C[C@@H]1NC(=O)CCNC(=O)CNC(=O)[C@H](NC(=N)N)CCOCNC(=O)[C@H](CCCCN)NC(=O)[C@H](CCCCN)NC1=O	75	7760	
C[C@H]1NC(=O)CCNC(=O)CNC(=O)[C@H](NC(=N)N)CCOCNC(=O)[C@H](CCCCN)NC(=O)[C@H](CCCCN)NC1=O	5.62	1430	
N=C(N)N[C@@H]1CCOCNC(=O)[C@H](CCCCN)NC(=O)[C@H](CCCCN)NC(=O)[C@@H](Cc2ccccc2)NC(=O)CCNC(=O)CNC1=O.O=C(O)C(F)(F)F	3.06	1920	inhibition (Prothrombin (Bos taurus)): < 30%; Activity (Zika virus [6]): Active; Activity (A549 [9]): Toxic; inhibition (Trypsin (Sus scrofa)): < 10%
N=C(N)N[C@@H]1CCOCNC(=O)[C@H](CCCCN)NC(=O)[C@H](CCCCN)NC(=O)[C@@H](Cc2ccccc2)NC(=O)CNC(=O)CNC1=O (racemic)	139	17300	
N=C(N)N[C@@H]1CCOCNC(=O)[C@H](CCCCN)NC(=O)[C@H](CCCCN)NC(=O)Cc2cccc(c2)CNC(=O)[C@@H](Cc2ccccc2)NC1=O	5.34	693	

Compound	Ki [1] [nM]	Ki [2] [nM]	also measured
N=C(N)N[C@@H]1CCOCNC(=O)[C@H](CCCCN)NC(=O)[C@H](CCCCN)NC(=O)[C@H](Cc2ccccc2)NC(=O)CNC(=O)CNC1=O	31.9	657	
N=C(N)N[C@@H]1CCOCNC(=O)[C@H](CCCCN)NC(=O)[C@H](CCCCN)NC(=O)Cc2cccc(c2)CNC(=O)[C@@H](CC2CCCCC2)NC1=O	3.59	395	inhibition (Prothrombin (Bos taurus)): < 30%; inhibition (Trypsin (Sus scrofa)): < 10%
N=C(N)N[C@@H]1CCOCNC(=O)[C@H](CCCCN)NC(=O)[C@H](CCCCN)NC(=O)[C@H]2CCCN2C(=O)CCNC(=O)CNC1=O	21	2590	
N=C(N)N[C@@H]1CCOCNC(=O)[C@H](CCCCN)NC(=O)[C@H](CCCCN)NC(=O)CNC(=O)Cc2cccc(c2)CNC1=O	41.2	1760	
CC(C)[C@@H]1NC(=O)CCNC(=O)CNC(=O)[C@H](NC(=N)N)CCOCNC(=O)[C@H](CCCCN)NC(=O)[C@H](CCCCN)NC1=O	340	39700	
CC(C)[C@H]1NC(=O)CCNC(=O)CNC(=O)[C@H](NC(=N)N)CCOCNC(=O)[C@H](CCCCN)NC(=O)[C@H](CCCCN)NC1=O.O=C(O)C(F)(F)F	8.26	1680	Activity (A549 [8]): Non-Toxic
N=C(N)N[C@@H]1CCOCNC(=O)[C@H](CCCCN)NC(=O)[C@H](CCCCN)NC(=O)Cc2cccc(c2)CNC(=O)CNC1=O			inhibition (Prothrombin (Bos taurus)): < 30%; Activity (Zika virus [5]): Active; Activity (Zika virus [6]): Active; inhibition (Trypsin (Sus scrofa)): < 10%; Activity (A549 [8]): Non-Toxic
N=C(N)N[C@@H]1CCOCNC(=O)[C@H](CCCCN)NC(=O)[C@H](CCCCN)NC(=O)[C@@H](CCc2ccccc2)NC(=O)CCNC(=O)CNC1=O	10.3	1290	
CC(C)C[C@H]1NC(=O)CCNC(=O)CNC(=O)[C@H](NC(=N)N)CCOCNC(=O)[C@H](CCCCN)NC(=O)[C@H](CCCCN)NC1=O	4.3	1030	
C[C@H]1NC(=O)CNC(=O)CNC(=O)[C@H](NC(=N)N)CCOCNC(=O)[C@H](CCCCN)NC(=O)[C@H](CCCCN)NC1=O	187	6970	
N=C(N)N[C@@H]1CCOCNC(=O)[C@H](CCCCN)NC(=O)[C@H](CCCCN)NC(=O)[C@H](Cc2ccccc2)CNC(=O)CNC(=O)CNC1=O (cyclo(GG[X3]KK[X2]))	86	6490	
CCCC[C@H]1NC(=O)CCNC(=O)CNC(=O)[C@H](NC(=N)N)CCOCNC(=O)[C@H](CCCCN)NC(=O)[C@H](CCCCN)NC1=O	4.94	892	
N=C(N)N[C@@H]1CCOCNC(=O)[C@H](CCCCN)NC(=O)[C@H](CCCCN)NC(=O)CCNC(=O)Cc2cccc(c2)CNC1=O	81.4	56500	
N=C(N)N[C@@H]1CCOCNC(=O)[C@H](CCCCN)NC(=O)[C@H](CCCCN)NC(=O)[C@@H](c2ccccc2)NC(=O)CCNC(=O)CNC1=O	4.84	371	inhibition (Prothrombin (Bos taurus)): 55%; inhibition (Trypsin (Sus scrofa)): 33%
N=C(N)N[C@@H]1CCOCNC(=O)[C@H](CCCCN)NC(=O)[C@H](CCCCN)NC(=O)[C@@H](Cc2ccccc2)CNC(=O)CNC(=O)CNC1=O (cyclo(GG[X1]KK[X2]))	63	14800	inhibition (Prothrombin (Bos taurus)): < 30%; inhibition (Trypsin (Sus scrofa)): < 10%
